Like-named read-outs stand apart in the source and are kept apart here.
System: C. elegans
[1] = Table S2, C. elegans SS assay, 110 μM, 0 h, averages of 4 data points
[2] = Table S2, C. elegans SS assay, 110 μM, 24 h, averages of 4 data points

Molecule | Percentage of motility inhibition 0 h [1] [%] | Percentage of motility inhibition 24 h [2] [%] | Percentage of motility inhibition 0 h (110 µM) [%] | Percentage of motility inhibition 24 h (110 µM) [%]
CC(=O)O[C@H]1Cc2cc3c(cc2[C@H]2N(C)Cc4c(ccc5c4OCO5)[C@@]12C)OCO3 [Acetylcorynoline] | 34 | 11 |  | 
Cc1c(O)c(C)c2c(c1O)C(=O)[C@H](Cc1ccc3c(c1)OCO3)CO2 [Methylophiopogonanone A] | 21 | 0 |  | 
O=C(Nc1ccccc1F)N[C@H]1N=C(c2ccccc2)c2ccccc2NC1=O (racemic) [RSV604 (racemate)] | 23 | 13 |  | 
C=C1[C@H](OC(=O)c2ccccc2)C[C@H]2[C@@H](/C=C(\C)C(=O)[C@@]3(OC(C)=O)C[C@H](C)[C@H](OC(=O)c4ccccc4)[C@@H]3[C@H]1OC(C)=O)C2(C)C [Euphorbia Factor L2] | 27 | 21 |  | 
C=C1[C@@H]2CC[C@H]3[C@]4(C)C[C@H](O[C@@H]5O[C@H](CO)[C@@H](OS(=O)(=O)O)[C@H](OS(=O)(=O)O)[C@H]5OC(=O)CC(C)C)CC(C(=O)[O-])(C(=O)[O-])[C@H]4CC[C@]3(C2)[C@H]1O.[K+].[K+] [Carboxyatractyloside (dipotassium)] | 15 | 18 |  | 
COC(=O)[C@@H]1[C@H]2C[C@H]3c4[nH]c5ccccc5c4CCN3C[C@@H]2CC[C@@H]1O.Cl [Yohimbine (Hydrochloride)] | 24 | 0 |  | 
CN1CCCN=C1/C=C/c1cccc(O)c1.O=C(O)c1cc2ccccc2c(Cc2c(O)c(C(=O)O)cc3ccccc23)c1O [Oxantel (pamoate)] | 54 | 33 |  | 
(‐)‐Epicatechin gallate | 5 | 8 |  | 
COc1ccc(-c2oc3c(CC=C(C)C)c(O[C@@H]4O[C@H](CO)[C@@H](O)[C@H](O)[C@H]4O)cc(O)c3c(=O)c2O[C@@H]2O[C@@H](C)[C@H](O)[C@@H](O[C@@H]3O[C@H](CO)[C@@H](O)[C@H](O)[C@H]3O)[C@H]2O)cc1 [Epimedin A1] | 6 | 5 |  | 
CN(C)[C@@H]1C(O)=C(C(N)=O)C(=O)[C@@]2(O)C(O)=C3C(=O)c4c(O)ccc(Cl)c4[C@@H](O)[C@H]3C[C@@H]12.Cl [Demeclocycline (hydrochloride)] | 17 | 12 |  | 
Clc1ccc(COC(Cn2ccnc2)c2ccc(Cl)cc2Cl)c(Cl)c1.O=[N+]([O-])O (stereo not drawn) [Miconazole (nitrate)] | 26 | 15 |  | 
C[C@H](CC[C@@H](O[C@@H]1O[C@H](CO)[C@@H](O)[C@H](O)[C@H]1O[C@H]1O[C@@H](CO)[C@H](O)[C@@H](O)[C@@H]1O)C(C)(C)O)C1CC[C@@]2(C)C3CC=C4C(CC[C@H](O)C4(C)C)[C@]3(C)C(=O)C[C@]12C (stereo partly drawn) [11-Oxomogroside IIa] | 0 | 0 |  | 
Oc1cc(O)c2ccc(-c3ccc(O)c(O)c3)[o+]c2c1.[Cl-] [Luteolinidin (chloride)] | 29 | 8 |  | 
COc1ccc(-c2coc3c([C@@H]4O[C@H](CO)[C@@H](O)[C@H](O)[C@H]4O)c(O)ccc3c2=O)cc1 [4'‐Methoxypuerarin] | 14 | 3 |  | 
CCOC(=O)NCCCC(=O)NCCc1ccccc1 [Santacruzamate A] | 0 | 0 |  | 
CC(=O)O[C@@H]1CC[C@@]2(C)[C@@H](CC[C@]3(C)[C@@H]2C(=O)C=C2[C@@H]4[C@@H](C)[C@H](C)CC[C@]4(C)CC[C@]23C)[C@@]1(C)C(=O)O [AKBA] | 0 | 6 |  | 
CC(=O)OC/C1=C\[C@H]2[C@@H](OC(=O)/C=C/c3ccccc3)[C@@H](C)C[C@]2(OC(C)=O)C(=O)/C(C)=C/[C@@H]2[C@H](CC1)C2(C)C [Euphorbia factor L7a] | 21 | 23 |  | 
CN(Cc1ccc(C(C)(C)C)cc1)Cc1cccc2ccccc12.Cl [Butenafine (Hydrochloride)] | 43 | 0 |  | 
COC(=O)C1=CO[C@@H](C)[C@H]2CN3CCc4c([nH]c5ccccc45)[C@@H]3C[C@H]12 [Ajmalicine] | 0 | 1 |  | 
4'‐O‐Methylbavachalcone | 19 | 3 |  | 
C[C@@H]1O[C@@H](c2c(O)c([C@@H]3O[C@H](CO)[C@@H](O)[C@H](O)[C@H]3O)c3oc(-c4ccc(O)cc4)cc(=O)c3c2O)[C@H](O)[C@H](O)[C@H]1O [Isoviolanthin] | 21 | 2 |  | 
C=C[C@]1(C)C[C@@H](OC(=O)CSCCN(CC)CC)[C@]2(C)[C@H](C)CC[C@]3(CCC(=O)[C@H]32)[C@@H](C)[C@@H]1O.O=C(O)/C=C/C(=O)O [Tiamulin (fumarate)] | 9 | 9 |  | 
C/C=C1/CN2[C@H]3Cc4c([nH]c5ccccc45)[C@]2(O)C[C@@H]1[C@@]3(CO)C(=O)OC [16‐Epivoacarpine] | 7 | 2 |  | 

Molecule | Percentage of motility inhibition 0 h [1] [%] | Percentage of motility inhibition 24 h [2] [%] | Percentage of motility inhibition 0 h (110 µM) [%] | Percentage of motility inhibition 24 h (110 µM) [%]
Cc1ccn(C)n1 [1,3‐Dimethylpyrazole] | 6 | 3 |  | 
O=C(/C=C\c1ccc(O)c(O)c1)N[C@@H](Cc1ccc(O)c(O)c1)C(=O)O [Clovamide] | 2 | 0 |  | 
O=c1c2c3c(ccc2cc2n1CCc1cc4c(cc1-2)OCO4)OCO3 [8‐Oxocoptisine] | 2 | 30 |  | 
COCc1c(CO)cnc(C)c1O [4'‐O‐Methylpyridoxine] | 26 | 1 |  | 
CCN1CCN(C(=O)N[C@@H](C(=O)N[C@@H]2C(=O)N3[C@@H]2SC(C)(C)[C@@H]3C(=O)[O-])c2ccccc2)C(=O)C1=O.[Na+] [Piperacillin (sodium)] | 31 | 2 |  | 
CC(C)C1=CC2C(CCC2(C)O)C(C)(O)CC1 (stereo not drawn) [1αH,5αH-Guaia-6-ene-4β,10β-diol] | 0 | 27 |  | 
(‐)‐Gallocatechin gallate | 60 | 5 |  | 
Cucurbitacin B | 5 | 0 |  | 
CC(C)(O)[C@H]1CC[C@@](C)([C@H]2[C@@H](O)C[C@@]3(C)[C@@H]4C[C@H](O)[C@H]5C(C)(C)[C@@H](O)CC[C@@]56C[C@@]46CC[C@]23C)O1 [Cyclogalegenin] | 22 | 9 |  | 
COc1cccc(-c2oc3ccccc3c(=O)c2O)c1 [3'‐Methoxyflavonol] | 9 | 0 |  | 
NC(=O)c1ncn([C@@H]2O[C@H](CO)[C@@H](O)[C@H]2O)c1N.O=P(O)(O)O [AICAR (phosphate)] | 20 | 6 |  | 
CC(=O)O[C@H](CC(=O)O)C[N+](C)(C)C.[Cl-] [Acetyl‐L‐carni tine (hydrochloride)] | 12 | 0 |  | 
CC(=O)O[C@@H](C[C@@H](C)C1=C2C[C@H](O)[C@H]3[C@@]4(C)CCC(=O)C(C)(C)[C@@H]4CC[C@]3(C)[C@@]2(C)CC1=O)[C@H]1OC1(C)C [Alisol C 23-acetate] | 0 | 17 |  | 
CN1[C@@H](CC(=O)c2ccccc2)CCC[C@H]1CC(=O)c1ccccc1 [Lobelanine] | 0 | 5 |  | 
COc1c(O)cc2oc(-c3ccc(O)c(O)c3)cc(=O)c2c1O [Nepetin] | 4 | 17 |  | 
C=C(C)[C@@H]1CC[C@]2(C(=O)O)CC[C@]3(C)[C@H](CC[C@@H]4[C@@]5(C)CC[C@H](O[C@@H]6OC[C@H](O)[C@H](O)[C@H]6O[C@@H]6O[C@@H](C)[C@H](O)[C@@H](O)[C@H]6O)[C@@](C)(CO)[C@@H]5CC[C@]43C)[C@@H]12 [Pulchinenoside A] | 15 | 7 |  | 
CS/C=C/C(=O)NCCO[C@@H]1O[C@H](CO)[C@@H](O)[C@H](O)[C@H]1O [Entadamide‐A‐β‐D‐glucopyranoside] | 24 | 13 |  | 
Astragaloside I | 13 | 23 |  | 
O=C1N[C@@H](Cc2ccc(O)cc2)C(=O)N2CCC[C@@H]12 [Maculosin] | 0 | 0 |  | 
O=c1c(O[C@@H]2O[C@H](CO[C@@H]3O[C@H](CO)[C@@H](O)[C@H](O)[C@H]3O)[C@@H](O)[C@H](O)[C@H]2O)c(-c2ccc(O)cc2)oc2cc(O)cc(O)c12 [Kaempferol 3‐O‐gentiobioside] | 0 | 12 |  | 
CO/N=C(\C(=O)N[C@@H]1C(=O)N2C(C(=O)[O-])=C(CSc3nc(=O)c([O-])nn3C)CS[C@H]12)c1csc(N)n1.CO/N=C(\C(=O)N[C@@H]1C(=O)N2C(C(=O)[O-])=C(CSc3nc(=O)c([O-])nn3C)CS[C@H]12)c1csc(N)n1.O.O.O.O.O.O.O.[Na+].[Na+].[Na+].[Na+] [Ceftriaxone (sodium salt)] |  |  | 25 | 16
CCC1=C[C@@H]2CN3CCc4c([nH]c5ccccc45)[C@@](C(=O)OC)(C2)[C@@H]13 [Catharanthine] | 0 | 0 |  | 

Source: article PMC11855827, “High-Throughput Screening of Five Compound Libraries for Anthelmintic Activity and Toxicity Leads to the Discovery of Two Flavonoid Compounds” (International Journal of Molecular Sciences, 2025)
